How the values were obtained:
[1] = target: T1, KSR (Mus musculus, UniProt Q61097); test: KSR autophosphorylation in vitro; assay type: biochemical, mouse (KSR immunoprecipitated from COS-7 cells); parameters: Raf-1 peptides as substrate
T1 sequence (Q61097 1-873): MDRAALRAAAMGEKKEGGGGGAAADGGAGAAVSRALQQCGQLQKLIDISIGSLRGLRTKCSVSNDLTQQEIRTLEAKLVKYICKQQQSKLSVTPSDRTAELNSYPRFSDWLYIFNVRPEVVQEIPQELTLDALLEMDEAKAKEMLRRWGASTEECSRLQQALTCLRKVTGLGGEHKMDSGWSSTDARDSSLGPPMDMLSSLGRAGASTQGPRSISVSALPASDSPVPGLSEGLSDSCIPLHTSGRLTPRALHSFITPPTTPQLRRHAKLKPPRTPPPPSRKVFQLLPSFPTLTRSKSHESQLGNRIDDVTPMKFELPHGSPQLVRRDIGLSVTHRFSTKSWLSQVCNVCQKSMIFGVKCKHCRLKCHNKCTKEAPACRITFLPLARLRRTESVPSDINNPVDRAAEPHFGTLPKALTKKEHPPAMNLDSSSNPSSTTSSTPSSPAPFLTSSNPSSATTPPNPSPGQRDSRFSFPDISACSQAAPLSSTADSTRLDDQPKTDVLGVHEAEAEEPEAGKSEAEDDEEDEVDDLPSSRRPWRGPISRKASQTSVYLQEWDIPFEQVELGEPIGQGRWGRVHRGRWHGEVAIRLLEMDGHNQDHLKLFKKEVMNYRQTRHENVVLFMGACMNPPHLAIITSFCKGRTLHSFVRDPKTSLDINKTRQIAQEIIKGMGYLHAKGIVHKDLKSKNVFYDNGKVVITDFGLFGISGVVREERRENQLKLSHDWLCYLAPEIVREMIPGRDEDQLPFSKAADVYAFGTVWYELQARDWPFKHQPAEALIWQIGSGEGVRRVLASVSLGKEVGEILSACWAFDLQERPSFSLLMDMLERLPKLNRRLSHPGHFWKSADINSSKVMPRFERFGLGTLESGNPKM
Experimental: Phosphorylated KSR was resolved and detected as in FIG. 2A.
KSR was immunoprecipitated as above from 0.8 mg NP-40 lysate protein with 40 μl agarose-conjugated anti-Flag antibody at 4° C. for 4 hrs or overnight. […] The reaction was stopped by addition of Laemmli sample buffer. Samples were resolved by 7.5% sodium dodecyl sulfate-polyacrylamide gel electrophoresis (SDS-PAGE) and autoradiographed.

[2] = system: neutral sphingomyelinase; test: Sphingomyelin and ceramide concentrations in a cell-free system (HL-60 nuclei-free supernate); assay type: biochemical, human (HL-60 cells)
Experimental: TNF-α effects on sphingomyelin (A) and ceramide (B) concentrations in a cell-free system. HL-60 cells were grown in RPMI 1640 medium supplemented with 10% bovine calf serum and amino acids. To measure sphingomyelin, cells were resuspended (1×10^6 ml^-1), labeled for 48 hours in medium with [^3 H]choline (1 μCi ml^-1), in serum-free medium containing bovine insulin (5 μg ml^-1) and human transferrin (5 μg ml^-1). After 3 hours, cells were resuspended (150×10^6 ml^-1) in homogenization buffer (50 mM NaF, 5 mM EGTA, and 25 mM Hepes, pH 7.4), disrupted at 4° C. with 150 strokes of a tight-fitting Dounce homogenizer (Fisher Scientific, Pittsburgh, Pa.), and centrifuged for 5 minutes (500 g). The nuclei-free supernate was first incubated for 5 minutes at 4° C. with 30 nM human TNF-α (Genentech, South San Francisco, Calif.) or diluent (50 mM Hepes, pH 7.4). At time zero, 15 μl of supernate (112 μg per incubation) were added to a reaction mixture containing 30 μl of 25 mM Hepes, pH 7.4, 30 μl of 750 μM ATP, and 75 μl of reaction buffer (50 mM Hepes, pH 7.4 and 20 mM MgCl2) at 22° C. The reaction was terminated with CHCl3 :CH3 OH:HCl (100:100:1, v/v/v) and 150 μl of balanced salt solution (135 mM NaCl, 4.5 mM KCl, 1.5 mM CaCl2, 0.5 mM MgCl2, 5.6 mM glucose, and 10 mM Hepes, pH 7.2) containing 20 mM EDTA. Lipids in the organic phase extract were subjected to alkaline methanolysis to remove glycerophospholipids. Sphingomyelin recovery in the nuclei-free supernate was 93% of that in intact cells. A measure of 10^6 cell equivalents of supernate contained 50 μg of protein. Sphingomyelin was resolved by thin-layer chromatography (TLC) with CHCl3 :CH3 OH:CH3 COOH:H2 O (25:15:4:1.5) as solvent, identified by iodine vapor staining and quantified by liquid scintillation spectrometry. Ceramide was quantified with the diacylglycerol kinase reaction. Values (mean) are derived from triplicate determinations from one experiment representative of three similar studies for sphingomyelin and four similar studies for ceramide.
The binding of TNF-α to its receptor is detectable within 2 minutes and maximal by 5 to 10 minutes at 4° C. in membranes derived from HL-60 cells. Therefore, supernates from HL-60 cells, collected after a low-speed centrifugation to remove nuclei, were first incubated with TNF-α for 5 minutes at 4° C. to allow the formation of TNF-receptor complexes. Thereafter, reactions were initiated by warming supernates to 22° C. in a reaction mixture containing adenosine triphosphate (ATP) and Mg^2+ at pH 7.4.
These conditions were adopted to allow for activation of neutral sphingomyelinase. Under these conditions, TNF-α induced a time- and concentration-dependent reduction in sphingomyelin content (FIG. 9A). The effect of TNF-α was evident at 1 minute and maximal by 7.5 minutes. Sphingomyelin concentrations decreased 27% from a control concentration of 10.4±0.5 (mean±SEM) to 7.6±0.2 nmol per milligram (nmol mg^-1) of supernate protein (P<0.001). […] Concentrations of TNF-α of 300 pM were effective, with a maximal effect at 3 nM TNF-α [effective dose (ED50)≈500 pM]. Under the same conditions, ceramide increased quantitatively from 1.8±0.3 to 4.0±0.5 nmol mg^-1 (FIG. 9B). This effect was detectable at 1 minute (P<0.001) and maximal by 7.5 minutes. Thus, 2.8 nmol of sphingomyelin per milligram of supernate protein were lost for each 2.2 nmol of ceramide per milligram of supernate protein that was generated. […] Other choline-containing lipids, including phosphatidyl-choline, lysophosphatidylcholine, sphingosylphosphorylcholine, and 1,2-diacylglycerol were not affected by TNF-α.

| Compound | effect on activation of KSR [1] | effect on other choline-containing lipids and 1,2-diacylglycerol ([2]; TNF-α) | decrease in sphingomyelin concentration ([2]; TNF-α 30 nM, cell-free) [%] | ceramide generated ([2]; TNF-α, cell-free) | sphingomyelin lost ([2]; TNF-α, cell-free) | sphingomyelin concentration ([2]; after TNF-α, control 10.4±0.5, mean±SEM, P<0.001) | ceramide concentration ([2]; after TNF-α, from 1.8±0.3) [nmol/mg] | ED50 (sphingomyelin reduction) ([2]; cell-free) | concentration of maximal effect (sphingomyelin reduction) ([2]; cell-free) [nM] | effective concentration (sphingomyelin reduction) ([2]; cell-free) [pM] | onset of sphingomyelin reduction ([2]; cell-free) [min] | time to maximal ceramide increase ([2]; cell-free) [min] | time to maximal sphingomyelin reduction ([2]; cell-free) [min] | onset of ceramide increase ([2]; cell-free, P<0.001) [min] |
| --- | --- | --- | --- | --- | --- | --- | --- | --- | --- | --- | --- | --- | --- | --- |
| CCCCCCCCCCCCCC(=O)O[C@@H]1[C@@H](C)[C@@]2(O)[C@@H](C=C(CO)C[C@]3(O)C(=O)C(C)=C[C@@H]23)[C@@H]2C(C)(C)[C@]12OC(C)=O [TPA, 12-0-tetradecanoylphorbol-13-acetate] | no effect |  |  |  |  |  |  |  |  |  |  |  |  |  |
| TNF-α |  | not affected | 27 | 2.2 nmol per milligram of supernat | 2.8 nmol per milligram of supernat | 7.6±0.2 nmol per milligram (nmol mg^-1) of supernate protein | 4.0 ± 0.5 | ≈ 500 pM | 3 | 300 | 1 | ≤ 7.5 | ≤ 7.5 | 1 |

Reference: patent publication US6040149A, “Assay for identifying agents which act on the ceramide-activated protein kinase, kinase suppressor of ras, and methods of using said agents” (priority 1997, dated 2000)
